≈ marks a conversion by molar mass, not a printed value.
Experiments:
Type in all cases: cell-based
[1] = test system: K. pneumoniae strain MP-548; assay: Broth dilution MIC determination (CLSI) against K. pneumoniae strain MP-548; details: Klebsiella pneumoniae, MP548
Outline: (§1)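 Growth inhibition endpoint determined under CLSI broth dilution conditions. Categorical MIC output in mg/L: +++ (≤4), ++ (≥8, <32), + (≥32).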

E. coli strain MP-4 = assay: Broth dilution MIC determination (CLSI) against E. coli strain MP-4; details: Escherichia coli, MP4
Outline: as §1

[2] = test system: P. aeruginosa strain MP-3; assay: Broth dilution MIC determination (CLSI) against P. aeruginosa strain MP-3; details: Pseudomonas aeruginosa, MP3
Outline: as §1

[3] = test system: A. baumannii strain MP-15; assay: Broth dilution MIC determination (CLSI) against A. baumannii strain MP-15; details: Acinetobacter baumannii, MP15
Outline: as §1

S. aureus strain MP-12 = assay: Broth dilution MIC determination (CLSI) against S. aureus strain MP-12; details: Staphylococcus aureus, MP12, strain MP-12
Outline: as §1

Row | MIC [1] | MIC (E. coli strain MP-4) | MIC [2] | MIC [3] | MIC (S. aureus strain MP-12) | SMILES
1 | ≥ 32 µg/mL | ≤ 4 µg/mL | ≥ 32 µg/mL | ≥ 32 µg/mL | ≥ 32 µg/mL | CC[C@H]1OC(=O)C(C)C(=O)[C@H](C)[C@@H](O[C@@H]2OC(CN[C@H](C)c3ccc(F)cc3)CC(N(C)C)C2O)[C@](C)(OC)C[C@@H](C)CN[C@H](C)[C@H]2NC(=O)O[C@@]21C (stereo partly shown) [Compound 33]
2 | 8 to 32 µg/mL (≈ 11.9 to 47.7 µM) | ≤ 4 µg/mL | ≥ 32 µg/mL | ≥ 32 µg/mL | ≥ 32 µg/mL | CCNC[C@@H]1CC(N(C)C)[C@@H](O)[C@H](O[C@@H]2[C@@H](C)C(=O)C(C)C(=O)O[C@H](CC)[C@@]3(C)OC(=O)N[C@@H]3[C@@H](C)N(C)C[C@H](C)C[C@@]2(C)OC)O1 (stereo partly shown) [Compound 165, 3-Descladinosyl-3-oxo-6-O-methyl-11,12-dideoxy-12,11-(oxycarbonylimino)-6′-ethylamino Azithromycin]
3 | ≥ 32 µg/mL | ≥ 32 µg/mL | ≥ 32 µg/mL | ≥ 32 µg/mL | ≤ 4 µg/mL | CC[C@H]1OC(=O)[C@@](C)(F)C(=O)[C@H](C)[C@@H](O[C@@H]2OC(CNCc3cccc(-c4cncnc4)c3)CC(N(C)C)C2O)[C@](C)(OC)C[C@@H](C)C(=O)[C@H](C)[C@H]2NC(=O)O[C@@]21C (stereo partly shown) [Compound 93]
4 | ≥ 32 µg/mL | ≥ 32 µg/mL | ≥ 32 µg/mL | ≥ 32 µg/mL | ≥ 32 µg/mL | CC[C@H]1OC(=O)C(C)C(=O)[C@H](C)[C@@H](OC2OC(CN3CC(O)C3)CC(N(C)C)C2O)[C@](C)(OC)C[C@@H](C)CN[C@H](C)[C@H]2NC(=O)O[C@@]21C (stereo partly shown) [Compound 128, 3-Descladinosyl-3-oxo-6-O-methyl-N9a-desmethyl-11,12-dideoxy-12,11-(oxycarbonylimino)-6′-(3-hydroxy-1-azetidinyl) Azithromycin]
5 | ≥ 32 µg/mL | ≥ 32 µg/mL | ≥ 32 µg/mL | ≥ 32 µg/mL | ≥ 32 µg/mL | CC[C@H]1OC(=O)C(C)C(=O)[C@H](C)[C@@H](OC2OC(C(O)CNC3CC3)CC(N(C)C)C2O)[C@](C)(OC)C[C@@H](C)CN[C@H](C)[C@H]2NC(=O)O[C@@]21C (stereo partly shown) [Compound 188, 3-Descladinosyl-3-oxo-6-O-methyl-8-oxo-N9a-desmethyl-11,12-dideoxy-12,11-(oxycarbonylimino)-6′-hydroxy-6′-cyclopropylaminomethyl Azithromycin]
6 | ≥ 32 µg/mL | ≥ 32 µg/mL | ≥ 32 µg/mL | ≥ 32 µg/mL | ≥ 32 µg/mL | CC[C@H]1OC(=O)C(C)C(=O)[C@H](C)[C@@H](OC2OC(CN(C)C(C)=O)CC(N(C)C)C2O)[C@](C)(OC)C[C@@H](C)CN[C@H](C)[C@H]2NC(=O)O[C@@]21C (stereo partly shown) [Compound 169, 3-Descladinosyl-3-oxo-6-O-methyl-N9a-desmethyl-11,12-dideoxy-12,11-(oxycarbonylimino)-6′-(N-methyl-N-acetylamino) Azithromycin]
7 | 8 to 32 µg/mL (≈ 11.9 to 47.6 µM) | 8 to 32 µg/mL (≈ 11.9 to 47.6 µM) | ≥ 32 µg/mL | ≥ 32 µg/mL | ≥ 32 µg/mL | CC[C@H]1OC(=O)C(C)C(=O)[C@H](C)[C@@H](OC2OC(CN(C)OC)CC(N(C)C)C2O)[C@](C)(OC)C[C@@H](C)CN[C@H](C)[C@H]2NC(=O)O[C@@]21C (stereo partly shown) [Compound 145]
8 | ≥ 32 µg/mL | ≤ 4 µg/mL | ≥ 32 µg/mL | ≥ 32 µg/mL | ≥ 32 µg/mL | CC[C@H]1OC(=O)C(C)C(=O)[C@H](C)[C@@H](O[C@@H]2OC(CNCc3ccc(Cl)cc3)CC(N(C)C)C2O)[C@](C)(OC)C[C@@H](C)CN[C@H](C)[C@H]2NC(=O)O[C@@]21C (stereo partly shown) [Compound 36]

The remaining lines, values behind:

Row | SMILES | MIC [1] | MIC (E. coli strain MP-4) | MIC [2] | MIC [3] | MIC (S. aureus strain MP-12)
9 | CC[C@H]1OC(=O)[C@@](C)(F)C(=O)[C@H](C)[C@@H](O[C@@H]2OC(CNCc3cccnc3)CC(N(C)C)C2O)[C@](C)(OC)C[C@@H](C)C(=O)[C@H](C)[C@H]2NC(=O)O[C@@]21C (stereo partly shown) [Compound 101] | ≥ 32 µg/mL | ≥ 32 µg/mL | ≥ 32 µg/mL | ≥ 32 µg/mL | ≤ 4 µg/mL
10 | CC[C@H]1OC(=O)C(C)C(=O)[C@H](C)[C@@H](OC2OC(CNCC(F)(F)F)CC(N(C)C)C2O)[C@](C)(OC)C[C@@H](C)CN[C@H](C)[C@H]2NC(=O)O[C@@]21C (stereo partly shown) [Compound 112, 3-Descladinosyl-3-oxo-6-O-methyl-N9a-desmethyl-11,12-dideoxy-12,11-(oxycarbonylimino)-6′-(2-trifluoroethylamino) Azithromycin] | 8 to 32 µg/mL (≈ 11.3 to 45 µM) | ≤ 4 µg/mL | ≥ 32 µg/mL | 8 to 32 µg/mL (≈ 11.3 to 45 µM) | ≤ 4 µg/mL
11 | CC[C@H]1OC(=O)C(C)C(=O)[C@H](C)[C@@H](OC2OC(CNC3CC3)CC(N(C)C)C2O)[C@](C)(OC)C[C@@H](C)C(=O)N[C@H](C)[C@H]2NC(=O)O[C@@]21C (stereo partly shown) [Compound 189, 3-Descladinosyl-3-oxo-6-O-methyl-8-oxo-N9a-desmethyl-11,12-dideoxy-12,11-(oxycarbonylimino)-6′-cyclopropylamino Azithromycin] | ≥ 32 µg/mL | ≥ 32 µg/mL | ≥ 32 µg/mL | ≥ 32 µg/mL | ≥ 32 µg/mL
12 | CC[C@H]1OC(=O)C(C)C(=O)[C@H](C)[C@@H](O[C@@H]2OC(CNCc3cccc(Oc4cnccn4)c3)CC(N(C)C)C2O)[C@](C)(OC)C[C@@H](C)CN[C@H](C)[C@H]2NC(=O)O[C@@]21C (stereo partly shown) [Compound 22] | ≥ 32 µg/mL | 8 to 32 µg/mL (≈ 9.84 to 39.4 µM) | ≥ 32 µg/mL | ≥ 32 µg/mL | ≥ 32 µg/mL
13 | CC[C@H]1OC(=O)C(C)C(=O)[C@H](C)[C@@H](O[C@@H]2O[C@H](CNC3CCC3)CC(N(C)C)[C@H]2O)[C@](C)(OC)C[C@@H](C)CN(C)[C@H](C)[C@H]2NC(=O)O[C@@]21C (stereo partly shown) [Compound 163, 3-Descladinosyl-3-oxo-6-O-methyl-11,12-dideoxy-12,11-(oxycarbonylimino)-6′-cyclobutylamino Azithromycin] | ≤ 4 µg/mL | ≤ 4 µg/mL | ≥ 32 µg/mL | ≥ 32 µg/mL | ≥ 32 µg/mL
14 | CC[C@H]1OC(=O)[C@@]2(C)CC/C(=N\O)CO[C@](C)(C[C@@H](C)CN[C@H](C)[C@H]3NC(=O)O[C@@]31C)[C@H](OC1OC(C)CC(N(C)C)C1O)[C@@H](C)C2=O (stereo partly shown) [Compound 227] | ≥ 32 µg/mL | ≥ 32 µg/mL | ≥ 32 µg/mL | ≥ 32 µg/mL | ≥ 32 µg/mL
15 | CO[C@]1(C)C[C@@H](C)CN[C@H](C)[C@H]2NC(=O)O[C@]2(C)[C@@H](C)OC(=O)C(C)C(=O)[C@H](C)[C@H]1OC1OC(CN2CCCCC2)CC(N(C)C)C1O (stereo partly shown) [Compound 149, 3-Descladinosyl-3-oxo-6-O-methyl-N9a-desmethyl-11,12-dideoxy-12,11-(oxycarbonylimino)-6′-piperidinyl-13-methyl Azithromycin] | ≥ 32 µg/mL | ≤ 4 µg/mL | ≥ 32 µg/mL | ≥ 32 µg/mL | ≥ 32 µg/mL
16 | CC[C@H]1OC(=O)[C@@]2(C)CCOC(C)(C[C@@H](C)CN(C)[C@H](C)[C@H]3NC(=O)O[C@@]31C)[C@H](O[C@@H]1OC(C)CC(N(C)C)C1O)[C@@H](C)C2=O (stereo partly shown) [Compound 223] | ≤ 4 µg/mL | ≤ 4 µg/mL | ≥ 32 µg/mL | 8 to 32 µg/mL (≈ 12.5 to 50 µM) | ≤ 4 µg/mL
17 | CC[C@H]1OC(=O)C(C)C(=O)[C@H](C)[C@@H](OC2OC(C(=O)N(C)C)CC(N(C)C)C2O)[C@](C)(OC)C[C@@H](C)CN[C@H](C)[C@H]2NC(=O)O[C@@]21C (stereo partly shown) [Compound 167, 3-Descladinosyl-3-oxo-6-O-methyl-N9a-desmethyl-11,12-dideoxy-12,11-(oxycarbonylimino)-5′-desmethyl-5′-(N,N-dimethylcarboxamido) Azithromycin] | ≥ 32 µg/mL | ≥ 32 µg/mL | ≥ 32 µg/mL | ≥ 32 µg/mL | ≥ 32 µg/mL
